According to PMC7796031, “Studies of Coumarin Derivatives for Constitutive Androstane Receptor (CAR) Activation” (Molecules, 2020):
Entries after “also recorded” stand apart in the source; their conditions may differ.

biological target: T1, Constitutive androstane receptor (CAR) (Homo sapiens, UniProt Q14994); test: In vitro CAR activation screening assay (UGT1A1 promoter gtPBREM-pGL4 luciferase reporter in Hep3B-gtPBREM cells); assay type: cell-based; details: 10 μM
T1 construct: The pGL4-gtPBREM plasmid was transfected into Hep3B cells; endogenous in cells
T1 sequence (Q14994 1-352): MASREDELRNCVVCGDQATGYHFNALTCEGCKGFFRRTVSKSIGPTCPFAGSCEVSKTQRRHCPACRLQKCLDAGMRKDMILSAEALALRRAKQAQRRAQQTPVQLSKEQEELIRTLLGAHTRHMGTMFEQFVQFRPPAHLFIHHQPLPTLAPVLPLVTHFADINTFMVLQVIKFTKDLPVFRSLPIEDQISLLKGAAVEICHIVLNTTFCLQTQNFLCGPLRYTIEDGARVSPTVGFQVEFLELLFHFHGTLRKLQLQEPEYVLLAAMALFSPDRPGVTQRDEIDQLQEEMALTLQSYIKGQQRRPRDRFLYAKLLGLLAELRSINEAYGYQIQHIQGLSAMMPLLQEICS
Description: Until now, there is no commercially available high throughput screening method for CAR activation. Traditionally, CAR activation can be detected in western blots by its downstream signals such as UGT1A1, MRP2 or CYP2B6. […] However, this method was slow and pricy. In order to rapidly screen all the compounds for CAR activation at less cost, an in vitro CAR activation screening assay was developed: DNA was extracted from Hep3B cells and UGT1A1 promoter was obtained using PCR amplification. Ligation between UGT1A1 promoter and pGL4 vector was performed and the plasmid was amplified via E. coli replication. The desired plasmid was extracted from E. coli and transfected into Hep3B. The desired colony bearing UGT1A1 promoter-pGL4 plasmid was selected by neomycin. CAR activation was measured by adding tested compounds to Hep3B for several hours and luminescence was measured. Higher activation will get higher luminescence readout. This assay system was validated with two different CAR agonists: CITCO (direct agonist) and scoparone (an indirect agonist). […] Different concentration of scoparone at 1, 5, 10 and 20 μM had been tested either for luciferase assay or downstream UGT1A1 and MRP2 expression (data not shown) and 10 μM was selected to be the best condition for the following work.
After successfully establishing the in vitro assay, all of the coumarin compounds were subjected to the screening (at 10 μM) and their SAR was discussed. Although the reporter system can successfully identify CAR-activating compounds under 8 h and display better efficiency and sensitivity compared with western blots, it only presented a medium luciferase response. According to previous studies, CITCO was reported to only moderately enhance human CAR (less than 2-fold), compared with the enhance provided by TCPOBOP for murine CAR (5- to 10-fold) in luciferase reporter assays. […] Another possibility for the medium response in our reporter system might be the contribution of the whole gtPBREM element which might include response-suppressive elements that was used and the single nucleotide variation of DR3 element which was reported to slightly reduce the original UGT1A1 activity.
The genomic DNA was isolated from Hep3B cells using Wizard® Genomic DNA Purification Kit (Promega, Fitchburg, WI, USA). The promoter region of UGT1A1 gene, gtPBREM element, was amplified by AccuPrime^TM Taq DNA Polymerase High Fidelity Kit (Invitrogen, MA, USA). The sequence of the amplified element was confirmed by DNA sequencing company and cloned into pGL4 luciferase reporter vector. The pGL4-gtPBREM plasmid was transfected into Hep3B cells. The stable pGL4-gtPBREM transfected Hep3B cells, Hep3B-gtPBREM cells, were established after G418 selection. The luciferase activity represented of CAR activation ability was measured using individual established clone. Further, CAR-shRNA was obtained from the Genomic Research Center and transfected into Hep3B-gtPBREM cells. The transient transfected shCAR-Hep3B-gtPBREM cells were used for further luciferase assays.
The Hep3B-gtPBREM cells and shCAR-Hep3B-gtPBREM cells (1.5 × 10^5 cells/well) were seeded into 12-well plates for overnight then pre-determined concentration compounds were added for desired time. After treatment, transfected cells were washed twice in PBS, lysated with 1× passive lysis buffer and luciferase intensity of equal amount of cell lysate was measured by a Synergy HT Multi-Mode Microplate Reader (BioTek, Winooski, VT, USA).

With `COc1cc2oc(=O)ccc2cc1OC1OC(CO)C(O)C(O)C1O` (stereo not shown) [Compound 52, isoscopolin] the “CAR activation compared with scoparone” value was “superior CAR activating activity than scoparone”.
In the case of `COc1cc2ccc(=O)oc2cc1O[C@@H]1O[C@H](CO)[C@@H](O)[C@H](O)[C@H]1O` [Compound 53, scopolin], the “CAR activation compared with scoparone” value is reported as “superior CAR activating activity than scoparone”.
For `COc1cc(OC)c2ccc(=O)oc2c1O` [Compound 57, 5,7-dimethoxy-8-hydroxycoumarin], the “CAR activation compared with scoparone” value was “comparable CAR activation effects to scoparone; also recorded: superior CAR activating activity than scoparone”.
With `COc1cc2ccc(=O)oc2c(OC)c1OC` [Compound 58, 6,7,8-trimethoxycoumarin] the “CAR activation compared with scoparone” value was “comparable CAR activation effects to scoparone”.
For `COc1cc2ccc(=O)oc2c2c1OCO2` [Compound 59, 6-Methoxy-7,8-methylenedioxycoumarin], the “CAR activation compared with scoparone” value was “superior CAR activating activity than scoparone”.
In the case of `COc1c2c(c3oc(=O)ccc3c1OC)OCO2` [Compound 60, 5,6-dimethoxy-7,8-methylenedioxycoumarin], the “CAR activation compared with scoparone” value is reported as “good activity; also recorded: superior CAR activating activity than scoparone”.

same assay, conditions: 10 μM; compared to scoparone

In the case of `COc1cc2ccc(=O)oc2c2c1OCO2` [Compound 59, 6-Methoxy-7,8-methylenedioxycoumarin], the “increased CAR activation fold” value is reported as 36%.

same assay, conditions: Table 1; 10 μM; (luminescence of compound − luminescence of scoparone)/luminescence of scoparone × 100%; read-out: CAR Activation Fold

Going from `O=c1ccc2c(O)cccc2o1` [Compound 1, 5-hydroxycoumarin] to `COc1cccc2oc(=O)ccc12` [Compound 2, 5-methoxycoumarin], the activation at 10 µM falls from 6% to -20%.

Compared with `CC(=O)Oc1cccc2oc(=O)ccc12` [Compound 3], `CC(=O)Oc1cccc2ccc(=O)oc12` [Compound 29] is lower in activation at 10 µM: -32% for the first, -33% for the second.

Going from `C=CCOc1cccc2oc(=O)ccc12` [Compound 4] to `C=CCOc1cccc2ccc(=O)oc12` [Compound 30], the activation at 10 µM falls from -15% to -34%.

Compared with `CCCCOc1cccc2oc(=O)ccc12` [Compound 5], `CCCCOc1cccc2ccc(=O)oc12` [Compound 31, 8-n-Butoxycoumarin] is higher in activation at 10 µM: -9% for the first, 4% for the second.

Compared with `CC(C)=CCCC(C)=CCOc1cccc2oc(=O)ccc12` [Compound 7], `CC(C)=CCCC(C)=CCCC(C)=CCOc1cccc2oc(=O)ccc12` [Compound 8] is higher in activation at 10 µM: -18% for the first, 2% for the second.

Going from `O=c1ccc2cc(O)ccc2o1` [Compound 9, 6-hydroxycoumarin] to `O=c1ccc2ccc(O)cc2o1` [Compound 18, umbelliferone], the activation at 10 µM rises from -8% to -1%.

Going from `COc1ccc2oc(=O)ccc2c1` [Compound 10, 6-methoxycoumarin] to `COc1ccc2ccc(=O)oc2c1` [Compound 19, 7-methoxycoumarin], the activation at 10 µM falls from 32% to -9%.

Going from `O=c1ccc2cc(OC(F)(F)F)ccc2o1` [Compound 11, 6-Trifluoromethoxycoumarin] to `O=c1ccc2ccc(OC(F)(F)F)cc2o1` [Compound 20, 7-Trifluoromethoxycoumarin], the activation at 10 µM rises from -34% to 18%.

Compared with `CC(=O)Oc1ccc2oc(=O)ccc2c1` [Compound 12], `CC(=O)Oc1ccc2ccc(=O)oc2c1` [Compound 21] is lower in activation at 10 µM: -22% for the first, -37% for the second.

Going from `C=CCOc1ccc2oc(=O)ccc2c1` [Compound 13] to `CC(C)=CCOc1ccc2oc(=O)ccc2c1` [Compound 15], the activation at 10 µM rises from -17% to 22%.

Going from `CCCCOc1ccc2oc(=O)ccc2c1` [Compound 14] to `CC(C)=CCCC(C)=CCOc1ccc2oc(=O)ccc2c1` [Compound 16], the activation at 10 µM falls from 37% to 18%.

Going from `CC(C)=CCCC(C)=CCCC(C)=CCOc1ccc2oc(=O)ccc2c1` [Compound 17] to `CC(C)=CCCC(C)=CCCC(C)=CCOc1ccc2ccc(=O)oc2c1` [Compound 26], the activation at 10 µM rises from -41% to -29%.

First: CC(C)=CCOc1ccc2ccc(=O)oc2c1 [Compound 24]
Second: CC(C)=CCCC(C)=CCOc1ccc2ccc(=O)oc2c1 [Compound 25, aurapten]
The activation at 10 µM of the first is lower: -35% for the first, -13% for the second.

Compared with `O=c1ccc2cccc(O)c2o1` [Compound 27, 8-hydroxycoumarin], `COc1cccc2ccc(=O)oc12` [Compound 28, 8-methoxycoumarin] is lower in activation at 10 µM: 40% for the first, -8% for the second.

Going from `CC(C)=CCOc1cccc2ccc(=O)oc12` [Compound 32] to `CC(C)=CCCC(C)=CCOc1cccc2ccc(=O)oc12` [Compound 33], the activation at 10 µM falls from 2% to -30%.

For `CC(C)=CCCC(C)=CCCC(C)=CCOc1cccc2ccc(=O)oc12` [Compound 34], the activation at 10 µM was 19%.

same assay, conditions: Table 2; 10 μM; (luminescence of compound − luminescence of scoparone)/luminescence of scoparone × 100%; read-out: CAR Activation Fold

Going from `O=c1ccc2cc(O)c(O)cc2o1` [Compound 35, esculetin] to `COc1cc2oc(=O)ccc2cc1O` [Compound 37, isoscopoletin], the activation at 10 µM rises from -22% to -10%.

Going from `Cc1cc2ccc(=O)oc2cc1C` [Compound 36] to `COc1cc2ccc(=O)oc2cc1O` [Compound 38, scopoletin], the activation at 10 µM rises from -17% to -1%.

First: O=c1ccc2cc3c(cc2o1)OCO3 [Compound 40, ayapin]
Second: O=c1ccc2cc3c(cc2o1)OCCO3 [Compound 41]
The activation at 10 µM of the first is higher: 7% for the first, -50% for the second.

Going from `CCOc1cc2ccc(=O)oc2cc1OCC` [Compound 42] to `CCCOc1cc2ccc(=O)oc2cc1OCCC` [Compound 45], the activation at 10 µM falls from -26% to -37%.

First: CC(=O)Oc1cc2ccc(=O)oc2cc1OC(C)=O [Compound 43]
Second: CCCCOc1cc2ccc(=O)oc2cc1OCCCC [Compound 46, 6,7-Di-n-butoxycoumarin]
The activation at 10 µM of the first is higher: -11% for the first, -39% for the second.

Going from `C=CCOc1cc2ccc(=O)oc2cc1OCC=C` [Compound 44, 6,7-Dialloxycoumarin] to `CC(C)CCOc1cc2ccc(=O)oc2cc1OCCC(C)C` [Compound 48, 6,7-Di-isopentoxycoumarin], the activation at 10 µM falls from -18% to -61%.

First: CCCCCCOc1cc2ccc(=O)oc2cc1OCCCCCC [Compound 49, 6,7-Dihexoxycoumarin]
Second: CC(C)=CCC/C(C)=C/COc1cc2ccc(=O)oc2cc1OC/C=C(\C)CCC=C(C)C [Compound 51, 6,7-Digeranoxycoumarin]
The activation at 10 µM of the first is higher: -5% for the first, -32% for the second.

Going from `COc1cc2oc(=O)ccc2cc1OC1OC(CO)C(O)C(O)C1O` (stereo not shown) [Compound 52, isoscopolin] to `COc1cc2ccc(=O)oc2cc1O[C@@H]1O[C@H](CO)[C@@H](O)[C@H](O)[C@H]1O` [Compound 53, scopolin], the activation at 10 µM falls from 35% to 17%.

same assay, conditions: Table 3; 10 μM; (luminescence of compound − luminescence of scoparone)/luminescence of scoparone × 100%; read-out: CAR Activation Fold

Compared with `COc1cc2oc(=O)ccc2c(OC)c1OC` [Compound 54, 5,6,7-trimethoxycoumarin], `COc1cc2ccc(=O)oc2c(OC)c1OC` [Compound 58, 6,7,8-trimethoxycoumarin] is higher in activation at 10 µM: -19% for the first, 0% for the second.

Compared with `COc1cc(OC)c2ccc(=O)oc2c1OC` [Compound 56], `COc1cc(OC)c2ccc(=O)oc2c1O` [Compound 57, 5,7-dimethoxy-8-hydroxycoumarin] is higher in activation at 10 µM: -14% for the first, 2% for the second.

Compared with `COc1cc2ccc(=O)oc2c2c1OCO2` [Compound 59, 6-Methoxy-7,8-methylenedioxycoumarin], `COc1c2c(c3oc(=O)ccc3c1OC)OCO2` [Compound 60, 5,6-dimethoxy-7,8-methylenedioxycoumarin] is lower in activation at 10 µM: 36% for the first, 12% for the second.

same assay, conditions: read-out: CAR Activation Fold

Compared with `C=CCOc1ccc2ccc(=O)oc2c1` [Compound 22], `CCCCOc1ccc2ccc(=O)oc2c1` [Compound 23] is lower in activation at 10 µM: -46% for the first, -51% for the second.

Work on `COc1cc2oc(=O)ccc2c(OC)c1O` [Compound 55, fraxinol] yielded an activation at 10 µM of -17%.

tested on: not given; test: not given; details: not given

Compared with `O=c1ccc2cc(OC(F)(F)F)ccc2o1` [Compound 11, 6-Trifluoromethoxycoumarin], `O=c1ccc2ccc(OC(F)(F)F)cc2o1` [Compound 20, 7-Trifluoromethoxycoumarin] is lower in melting point: 83 to 85 °C for the first, 69 to 71 °C for the second.

First: C=CCOc1cc2ccc(=O)oc2cc1OCC=C [Compound 44, 6,7-Dialloxycoumarin]
Second: CCCCOc1cc2ccc(=O)oc2cc1OCCCC [Compound 46, 6,7-Di-n-butoxycoumarin]
The melting point of the first is higher: 84 to 85 °C for the first, 77 to 79 °C for the second.
